Test results as given in patent US7217710B2, “Substituted pyrazolopyrimidines” (SmithKline Beecham Corporation, priority 2001, dated 2007).

Target: T1, GST-TIE2 (intracellular domains of human TIE2) (Homo sapiens, UniProt Q02763)
T1 construct: made in house
Test: TIE-2 Enzyme Assay (TIE2-E2), LANCE method
Type: biochemical
Details: for IC50: read-out: TIE2 PIC50 TIE2-E2 assay
Text: TIE-2 Enzyme Assay (TIE2-E2
The TIE-2 enzyme assay uses the LANCE method (Wallac) and GST-TIE2, baculovirus-expressed recombinant constructs of the intracellular domains of human TIE2 (amino acids 762–1104, GenBank Accession # L06139) tagged by GST). The method measures the ability of the purified enzymes to catalyse the transfer of the γ-phosphate from ATP onto tyrosine residues in a biotinylated synthetic peptide, D1–15 (biotin-C6-LEARLVAYEGWVAGKKKamide). This peptide phosphorylation is detected using the following procedure: for enzyme preactivation, GST-TIE2 is incubated for 2 hours at room temperature with 80 μM ATP, 10 mM MgCl2, 0.1 mg/ml BSA, 0.01% Tween 20 and 1 mM DTT in 100 mM HEPES buffer (pH7.4). 5 nM preactivated GST-TIE2 is incubated for 2 hours at room temperature in 96 well plates with 1 uM D1–15 peptide, 80 uM ATP, 10 mM MgCl2, 0.1 mg/ml BSA, 0.01% Tween 20 and titrated test compound (diluted from a 10 mM stock in DMSO, final DMSO concentration is 2.4%) in 100 mM HEPES (pH7.4). The reaction is stopped by the addition of EDTA (final concentration 45 mM). Streptavidin linked-APC (allophycocyanin, PerkinElmer) and europium-labeled anti-phosphotyrosine antibody (PerkinElmer) are then added at the final concentration of 8 nM and 1 nM, respectively. The APC signal is measured using an Wallac Multilabel 1420 counter. (Wallac Berthold Japan). The percent inhibition of activity is calculated relative to blank control wells. The concentration of test compound that inhibits 50% of activity (IC50) is interpolated using nonlinear regression (Levernberg-Marquardt) and the equation, y=Vmax (1−x/(K+x))+Y2, where “K” is equal to the IC50. The IC50 values are converted to pIC50 values, i.e., −log IC50 in Molar concentration.

T1 sequence (Q02763 762-1104): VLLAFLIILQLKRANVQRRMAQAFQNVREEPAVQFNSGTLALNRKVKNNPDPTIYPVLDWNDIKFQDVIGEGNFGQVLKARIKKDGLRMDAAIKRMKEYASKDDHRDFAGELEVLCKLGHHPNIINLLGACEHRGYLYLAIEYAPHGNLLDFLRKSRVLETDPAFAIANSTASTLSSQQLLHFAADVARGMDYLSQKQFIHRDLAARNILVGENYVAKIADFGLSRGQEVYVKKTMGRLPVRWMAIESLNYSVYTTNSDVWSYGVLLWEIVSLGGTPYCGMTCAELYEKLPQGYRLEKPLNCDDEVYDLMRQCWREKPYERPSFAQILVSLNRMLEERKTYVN

| Molecule | IC50 [µM] | TIE2 PIC50 TIE2-E2 assay |
| --- | --- | --- |
| 2,3-Dichloro-N-{4-[1-methyl-6-(3-diethylamino -propylamino)-1H-pyrazolo[3,4-d]pyrimidin-3-yl]-phenyl}-benzenesulfonamide [Example 107] |  | −− (−− = PIC50 less than 5.00) |
| Cn1nc(-c2ccc(NC(=O)Nc3cc(C(F)(F)F)ccc3F)cc2)c2cnc(NCCOC(=O)Nc3cc(C(F)(F)F)ccc3F)nc21 [Example 30, (Fluoro-trifluoromethyl-phenyl)-carbamic acid 2-(3-{4-[3-(fluoro-trifluoromethyl-phenyl)-ureido]-phenyl}-1-methyl-1H-pyrazolo[3,4-d]pyrimidin-6-ylamino)-ethyl ester] | 1 to 10 |  |
| Cn1nc(-c2ccc(NC(=S)Nc3cccc(C(F)(F)F)c3)cc2)c2cnc(NCCN3CCOCC3)nc21 [Example 36, 1-{4-[1-Methyl-6-(2-morpholin-4-yl-ethylamino)-1H-pyrazolo[3,4-d]pyrimidin-3-yl]-phenyl}-3-(3-trifluoromethyl-phenyl)-thiourea] | 0.1 to 1 |  |
| CCc1cccc(NC(=O)Nc2ccc(-c3nn(C)c4nc(NCCN5CCOCC5)ncc34)cc2)c1 [Example 38, 1-(3-Ethyl-phenyl)-3-{4-[1-methyl-6-(2-morpholin-4-yl-ethylamino) -1H-pyrazolo[3,4-d]pyrimidin-3-yl]-phenyl}-urea] | 0.0398 to 0.1 |  |
| CC(=O)c1cccc(NC(=O)Nc2ccc(-c3nn(C)c4nc(NCCN5CCOCC5)ncc34)cc2)c1 [Example 40, 1-(3-Acetyl-phenyl)-3-{4-[1-methyl-6-(2-morpholin-4-yl-ethylamino)-1H-pyrazolo[3,4-d]pyrimidin-3-yl]-phenyl}-urea] | 1 to 10 |  |
| Cc1cc(-c2nn(C)c3nc(NCCN4CCOCC4)ncc23)ccc1NC(=O)Nc1cc(C(F)(F)F)ccc1F [Example 43, 1-(2-Fluoro-5-trifluoromethyl-phenyl)-3-{methyl-[methyl-(2-morpholin-4-yl-ethylamino)-1H-pyrazolo[3,4-d]pyrimidin-3-yl]-phenyl}-urea] |  | +++ (+++ = PIC50 = 7.00 to less than 7.40) |
| Cc1cc(-c2nn(C)c3nc(NCCN4CCOCC4)ncc23)ccc1NC(=O)Nc1ccc(Cl)c(C(F)(F)F)c1 [Example 44, 1-(Chloro-trifluoromethyl-phenyl)-3-{methyl-[methyl-(2-morpholin-4-yl-ethylamino)-1H-pyrazolo[3,4-d]pyrimidin-3-yl]-phenyl}-urea] |  | ++ (++ = PIC50 = 6.00 to less than 7.00) |
| CCc1cccc(NC(=O)Nc2ccc(-c3nn(C)c4nc(NCCN5CCOCC5)ncc34)cc2C)c1 [Example 45, 1-(3-Ethyl-phenyl)-3-{2-methyl-4-[1-methyl-6-(2-morpholin-4-yl-ethylamino)-1H-pyrazolo[3,4-d]pyrimidin-3-yl]-phenyl}-urea] | 0.1 to 1 |  |
| Cc1cc(-c2nn(C)c3nc(NCCN4CCOCC4)ncc23)ccc1NC(=O)Nc1cc(C(F)(F)F)cc(C(F)(F)F)c1 [Example 47, 1-(Bis-trifluoromethyl-phenyl)-3-{methyl-[methyl-(2-morpholin-4-yl-methylamino)-1H-pyrazolo[3,4-d]pyrimidin-3-yl]-phenyl}-urea] | 0.1 to 1 |  |
| Cc1cc(-c2nn(C)c3nc(NCCN4CCOCC4)ncc23)ccc1NC(=O)Nc1cccc(C(F)(F)F)c1 [Example 48, 1-{2-Methyl-4-[methyl-(2-morpholin-4-yl-ethylamino)-1H -pyrazolo[3,4-d]pyrimidin-3-yl]-phenyl}-3-(3-trifluoromethyl-phenyl)-urea] |  | ++ (++ = PIC50 = 6.00 to less than 7.00) |
| CC(=O)c1cccc(NC(=O)Nc2ccc(-c3nn(C)c4nc(NCCN5CCOCC5)ncc34)cc2F)c1 [Example 54, 1-(3-Acetyl-phenyl)-3-{2-fluoro-4-[1-methyl-6-(2-morpholin-4-yl-ethylamino)-1H-pyrazolo[3,4-d]pyrimidin-3-yl]-phenyl}-urea] | 0.1 to 1 |  |
| Cc1cc(-c2nn(C)c3nc(NCCN4CCOCC4)ncc23)ccc1NC(=S)Nc1cccc(C(F)(F)F)c1 [Example 58, 1-{2-Methyl-4-[1-methyl-6-(2-morpholin-4-yl-ethylamino)-1H -pyrazolo[3,4-d]-pyrimidin-3-yl]-phenyl}-3-(3-trifluoromethyl-phenyl)-thiourea] | 1 to 10 |  |
| Cn1nc(-c2ccc(NC(=O)Nc3cc(C(F)(F)F)ccc3F)cc2)c2cnc(NCc3ccccc3)nc21 [Example 62, 1-(2-fluoro-5-trifluoromethyl-phenyl)-3-{4-[1-methyl-6-(benzylamino)-1H-pyrazolo[3,4-d]pyrimidin-3-yl]-phenyl}-urea] | 1 to 10 |  |
| Cn1nc(-c2ccc(NC(=O)Nc3cc(C(F)(F)F)ccc3F)cc2)c2cnc(Nc3cccc(Cl)c3)nc21 [Example 63] |  | ++ (++ = PIC50 = 6.00 to less than 7.00) |
| CN1CCC(N(C)c2ncnc3[nH]nc(-c4ccc(NC(=O)Nc5cc(C(F)(F)F)ccc5F)cc4)c23)CC1 [Example 65, 1-(2-fluoro-5-trifluoromethyl-phenyl)-3-(4-[methyl-(1-methyl-piperidin-4-ylamino]-1H-pyrazolo[3,4-d]pyrimidin-3-yl]-phenyl}-urea] |  | + (+ = PIC50 = 5.00 to less than 6.00) |

Continued, in another order:

| IC50 [µM] | Molecule | TIE2 PIC50 TIE2-E2 assay |
| --- | --- | --- |
| 0.1 to 1 | CN1CCC(Nc2ncc3c(-c4ccc(NS(=O)(=O)c5cccc(Cl)c5Cl)cc4)nn(C)c3n2)CC1 [Example 68] |  |
| 1 to 10 | Cn1nc(-c2ccc(NC(=O)Nc3cc(C(F)(F)F)ccc3F)cc2)c2cnc(NCCc3ccccc3)nc21 [Example 81, 1-(2-Fluoro-5-trifluoromethyl-phenyl)-3-{4-[(1-methyl-6-phenethylamino)-1H-pyrazolo[3,4-d]pyrimidin-3-yl]-phenyl} urea] |  |
| ≤ 0.0398 | Cn1nc(-c2ccc(NC(=O)Nc3cc(C(F)(F)F)ccc3F)cc2)c2cnc(NCCCN3CCCC3)nc21 [Example 86] |  |
| ≤ 0.0398 | CN(C)CCCNc1ncc2c(-c3ccc(NC(=O)Nc4cc(C(F)(F)F)ccc4F)cc3)nn(C)c2n1 [Example 87, 1-(2-Fluoro-5-trifluoromethyl-phenyl)-3-{4-[1-methyl-6-(3-dimethylamino-propylamino)-1H-pyrazolo[3,4-d]pyrimidin-3-yl]-phenyl} urea] |  |
| 0.0398 to 0.1 | Cn1nc(-c2ccc(NC(=O)Nc3cc(C(F)(F)F)ccc3F)cc2)c2cnc(NCCCN)nc21 [Example 94, 1-(2-Fluoro-5-trifluoromethyl-phenyl)-3-{4-[1-methyl-6-(3-amino-propylamino)-1H-pyrazolo[3,4-d]pyrimidin-3-yl]-phenyl} urea] |  |
| ≤ 0.0398 | Cn1nc(-c2ccc(NC(=O)Nc3cc(C(F)(F)F)ccc3F)cc2)c2cnc(NCCCCN)nc21 [Example 95, 1-(2-Fluoro-5-trifluoromethyl-phenyl)-3-{4-[1-methyl-6-(4-amino-butylamino)-1H-pyrazolo[3,4-d]pyrimidin-3-yl]-phenyl} urea] |  |
| 0.0398 to 0.1 | Cn1nc(-c2ccc(NC(=O)Nc3cc(C(F)(F)F)ccc3F)cc2)c2cnc(NCCCCNC(=N)N)nc21 [Example 99, 1-(2-Fluoro-5-trifluoromethyl-phenyl)-3-{4-[1-methyl-6-(4-guanidino-butylamino)-1H-pyrazolo[3,4-d]pyrimidin-3-yl]-phenyl} urea] |  |
| > 10 | Cn1nc(-c2ccc(NS(=O)(=O)c3cccc(Cl)c3Cl)cc2)c2cnc(NCCCN3CCOCC3)nc21 [Example 103, 2,3-Dichloro-N-{4-[1-methyl-6-(3-morpholin-4-yl-propylamino)-1H-pyrazolo[3,4-d]pyrimidin-3-yl)-phenyl}-benzenesulfonamide] |  |
